System: 598228-144-R-J1-PDC complex spheroids, viability
Assay: Anticancer human tumor 598228-144-R-J1-PDC patient-derived serous endometrial adenocarcinoma cell line growth inhibition [CLK]
Settings: for IC50: curve of first compound; for viability, T/C: stronger effect = lower value
Text: A high-throughput screen of multi-cell type tumor spheroids was designed to identify active combinations of […] and targeted small molecules. Complex spheroids include a stromal component modeled by human endothelial cells (HUVEC) and fibroblasts modeled by human mesenchymal stem cells (MSCs). The concentration ranges selected for each drug and investigational agent were based upon clinically achievable concentrations if the clinical Cmax of the agent was known.
Compounds. The drugs and investigational agents: cirtuvivint (SM08502; NSC835563), CC-671 (NSC850746), vemurafenib (NSC761431), tapotoclax (NSC804041), sotorasib (NSC818433), adagrasib (NSC831453), MRTX-1133 (NSC836407), BAY2416964 (NSC825713), copanlisib (NSC816437), inavolisib (NSC800729), abemaciclib (NSC768073), osimertinib (NSC779217), entinostat (NSC756642), eltanexor (KPT-8602, NSC794443), venetoclax (NSC766270), ceralasertib (NSC777638), bortezomib (NSC756655), olaparib (NSC753686), talazoparib (NSC767125), alisertib (NSC759677), peposertib (NSC802822), gemcitabine (NSC613327), 5-fluorouracil (NSC19893), SN-38 (NSC673596), oxaliplatin (NSC266046), paclitaxel (NSC125973), and doxorubicin (NSC123127), were obtained from the National Cancer Institute (NCI) Developmental Therapeutics Program Chemical Repository. The FDA-approved anticancer drug set is available from the Developmental Therapeutics Program at https://dtp.cancer.gov/organization/dscb/obtaining/available plates.htm. […] The stock solutions were prepared in dimethyl sulfoxide (DMSO, Sigma-Aldrich, St. Louis, MO, cat. D2650), except for the platinum complexes which were prepared in saline (Quality Biological, Gaithersburg, MD, cat. 114-055-101), at 800-fold the tested concentration and stored at -70 degrees C prior to their use. All drugs and investigational agents were tested over a range starting from a high concentration at or near the clinical Cmax and decreasing in half-log increments. If the clinical Cmax for an agent had not been determined, the highest concentration tested was 10 microM.
Cell Culture. All cells were maintained in an incubator at 37 degrees C and 5% CO2 with 95% humidity. The PDC lines were cultured according to standard operating procedures established by the NCI PDMR. Briefly, all PDCs were thawed and cultured in Matrigel-coated flasks prepared with a working solution of 1X Ham's F-12 nutrient mix, without supplementation (Invitrogen, Waltham, MA, cat. 11765054), 100 U/mL penicillin-streptomycin (Invitrogen, cat. 15140122), and 2.5% Matrigel (Corning Inc., Corning, NY, cat. 354248) for the first three passages. The 947758-054-R-J2-PDC line was cultured in 6B/Colon 1A media, which includes advanced DMEM/F-12 (Thermo Fisher Scientific, cat. 12634028), 10 mM HEPES (Thermo Fisher Scientific, cat. 15630080), 1X GlutaMAX supplement (Thermo Fisher Scientific, cat. 35050061), 0.1 mg/mL primocin (InvivoGen, cat. ant-pm-2), 10% defined fetal bovine serum, heat inactivated (HyClone Laboratories Inc., cat. SH30070.03HI), 1.25 mM N-Acetyl-L-cysteine (Sigma-Aldrich, cat. A9165), 10 mM nicotinamide (Sigma-Aldrich, cat. N0636), 1X B-27 supplement (Thermo Fisher Scientific, cat. 17504044), 1X N-2 supplement (Thermo Fisher Scientific, cat. 17502048), and 10 microM Y-27632 dihydrochloride (Tocris Bioscience, cat. 1254). The 876862-298-R-J1-PDC was cultured in 6E media, which includes all 6B/Colon 1A media components plus 50% L-WRN conditioned media (ATCC, cat. CRL-3276), 50 ng/mL recombinant human EGF recombinant protein (hEGF; Thermo Fisher Scientific, cat. PHG0311), 10 ng/mL recombinant human fibroblast growth factor 10 (hGFG-10; PeproTech, cat. 100-26), 1 ng/mL recombinant human fibroblast growth factor 2 (hFGF-2; PeproTech, cat. 100-18B), and 1 µM prostaglandin E2 (PGE2; Tocris, cat. 2296). The 227483-062-R1-J1-PDC line was cultured in Panc media, containing all 6E components except hFGF-2, with the addition of 500 nM SB-431542 (Selleckchem, cat. S1067) and 10 nM gastrin (Tocris, cat. 3006). […]

[1] = second compound 0.0316 µM, first compound 0.0316 µM
[2] = second compound 0.0316 µM, first compound 0.1 µM
[3] = second compound 0.0316 µM, first compound 0.316 µM
[4] = second compound 0.0316 µM, first compound 1 µM
[5] = second compound 0.0316 µM, first compound 3.16 µM
[6] = second compound 0.0316 µM, first compound 10 µM
[7] = second compound 0.1 µM, first compound 0.0316 µM
[8] = second compound 0.1 µM, first compound 0.1 µM
[9] = second compound 0.1 µM, first compound 0.316 µM
[10] = second compound 0.1 µM, first compound 1 µM
[11] = second compound 0.1 µM, first compound 3.16 µM
[12] = second compound 0.1 µM, first compound 10 µM
[13] = second compound 0.316 µM, first compound 0.0316 µM
[14] = second compound 0.316 µM, first compound 0.1 µM
[15] = second compound 0.316 µM, first compound 0.316 µM
[16] = second compound 0.316 µM, first compound 1 µM
[17] = second compound 0.316 µM, first compound 3.16 µM
[18] = second compound 0.316 µM, first compound 10 µM
[19] = second compound 1 µM, first compound 0.0316 µM
[20] = second compound 1 µM, first compound 0.1 µM
[21] = second compound 1 µM, first compound 0.316 µM
[22] = second compound 1 µM, first compound 1 µM
[23] = second compound 1 µM, first compound 3.16 µM
[24] = second compound 1 µM, first compound 10 µM
[25] = second compound 3.16 µM, first compound 0.0316 µM
[26] = second compound 3.16 µM, first compound 0.1 µM
[27] = second compound 3.16 µM, first compound 0.316 µM
[28] = second compound 3.16 µM, first compound 1 µM
[29] = second compound 3.16 µM, first compound 3.16 µM
[30] = second compound 3.16 µM, first compound 10 µM
[31] = second compound 10 µM, first compound 0.0316 µM
[32] = second compound 10 µM, first compound 0.1 µM
[33] = second compound 10 µM, first compound 0.316 µM
[34] = second compound 10 µM, first compound 1 µM
[35] = second compound 10 µM, first compound 3.16 µM
[36] = second compound 10 µM, first compound 10 µM
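Further: spheroids exposed to compounds for seven days before readout.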
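Wherever viability, T/C is given: 100% = DMSO vehicle control wells.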

C=C(F)C(=O)N1CCN(c2nc(OCC3CCCN3C)nc3c2CCN(c2cccc4cccc(Cl)c24)C3)CC1CC#N (centres undefined) + CN1CCN(c2cc(C(=O)Nc3cc4cc(-c5cnn(C)c5)ccc4cn3)ccn2)CC1
IC50 (second compound 0.0316 µM): 5380 nM | IC50 (second compound 0.1 µM): 5530 nM | IC50 (second compound 0.316 µM): < 31.6 nM | IC50 (second compound 1 µM): < 31.6 nM | IC50 (second compound 3.16 µM): < 31.6 nM | IC50 (second compound 10 µM): < 31.6 nM | viability, T/C [1]: 120% | viability, T/C [2]: 116% | viability, T/C [3]: 123% | viability, T/C [4]: 122% | viability, T/C [5]: 91.6% | viability, T/C [6]: 1.53% | viability, T/C [7]: 131% | viability, T/C [8]: 123% | viability, T/C [9]: 116% | viability, T/C [10]: 135% | viability, T/C [11]: 95.7% | viability, T/C [12]: 1.5% | viability, T/C [13]: 17.1% | viability, T/C [14]: 20% | viability, T/C [15]: 17.4% | viability, T/C [16]: 18.9% | viability, T/C [17]: 11.9% | viability, T/C [18]: 0.14% | viability, T/C [19]: 2.31% | viability, T/C [20]: 2.11% | viability, T/C [21]: 1.77% | viability, T/C [22]: 1.1% | viability, T/C [23]: 1.88% | viability, T/C [24]: 0.11% | viability, T/C [25]: 1.76% | viability, T/C [26]: 3.04% | viability, T/C [27]: 1.61% | viability, T/C [28]: 2.21% | viability, T/C [29]: 2.11% | viability, T/C [30]: 0.17% | viability, T/C [31]: 1.18% | viability, T/C [32]: 1.1% | viability, T/C [33]: 3.38% | viability, T/C [34]: 0.85% | viability, T/C [35]: 1.73% | viability, T/C [36]: 3.8%

CC(CO)NC(=O)c1cc(-c2ccc(Cl)cc2)nn(-c2cnn(C)c2)c1=O (centres undefined) + CN1CCN(c2cc(C(=O)Nc3cc4cc(-c5cnn(C)c5)ccc4cn3)ccn2)CC1
IC50 (second compound 0.0316 µM): > 10000 nM | IC50 (second compound 0.1 µM): > 10000 nM | IC50 (second compound 0.316 µM): < 31.6 nM | IC50 (second compound 1 µM): < 31.6 nM | IC50 (second compound 3.16 µM): < 31.6 nM | IC50 (second compound 10 µM): < 31.6 nM | viability, T/C [1]: 129% | viability, T/C [2]: 113% | viability, T/C [3]: 128% | viability, T/C [4]: 120% | viability, T/C [5]: 115% | viability, T/C [6]: 108% | viability, T/C [7]: 130% | viability, T/C [8]: 128% | viability, T/C [9]: 135% | viability, T/C [10]: 125% | viability, T/C [11]: 135% | viability, T/C [12]: 130% | viability, T/C [13]: 21.2% | viability, T/C [14]: 17% | viability, T/C [15]: 17.9% | viability, T/C [16]: 17.5% | viability, T/C [17]: 18.3% | viability, T/C [18]: 18.2% | viability, T/C [19]: 2.7% | viability, T/C [20]: 2.28% | viability, T/C [21]: 1.94% | viability, T/C [22]: 1.84% | viability, T/C [23]: 2.34% | viability, T/C [24]: 1.94% | viability, T/C [25]: 2.22% | viability, T/C [26]: 2.04% | viability, T/C [27]: 1.99% | viability, T/C [28]: 2.65% | viability, T/C [29]: 2.74% | viability, T/C [30]: 2.69% | viability, T/C [31]: 1.3% | viability, T/C [32]: 1.36% | viability, T/C [33]: 2.02% | viability, T/C [34]: 1.53% | viability, T/C [35]: 3.43% | viability, T/C [36]: 2.58%

— PubChem BioAssay AID2060614 (Molecular Pharmacology Branch, DTP, NCI, 2025)
